Measured values reported in ChEMBL document CHEMBL3045583, “Increasing antitumor activity in vivo by enhancing acridine dimer solubility with salt preparations” (Med Chem Res, 2010).
Each block holds one compound with its values, some of them ahead of it. Calls of active or inactive are those of the source. No cut-off for these calls is given here.

Key:
[1] = Solubility of compound in saline at 0.4 mg/ml; assay type: physicochemical; conditions: buffer
[2] = Solubility of compound in water at 1 mg/ml; assay type: physicochemical; conditions: buffer
[3] = Solubility of compound in methanol at 3.3 mg/ml; assay type: physicochemical
[4] = Solubility of compound in saline at 1 mg/ml; assay type: physicochemical; conditions: buffer
[5] = Solubility of compound in methanol at 1 mg/ml; assay type: physicochemical
[6] = Solubility of compound in water at 8 mg/ml; assay type: physicochemical; conditions: buffer
[7] = Solubility of compound in water at 0.8 mg/ml; assay type: physicochemical; conditions: buffer
COLO 205 [8] = test: Antitumor activity against Homo sapiens (human) COLO205 xenografted in SCID mouse assessed as tumor growth at 5 to 20 mg/kg, ip 4 times daily for 3 days administered as solution in 1% carboxymethy-cellulose; assay type: functional, organism-based
COLO 205 [9] = test: Antitumor activity against Homo sapiens (human) COLO205 xenografted in SCID mouse assessed as tumor growth at 10 to 20 mg/kg, iv qd for 5 days for 2 administered as solution in 1% carboxymethy-cellulose; assay type: functional, organism-based
COLO 205 [10] = test: Antitumor activity against Homo sapiens (human) COLO205 xenografted in SCID mouse assessed as inhibition of tumor growth at 2.5 to 10 mg/kg, iv twice daily for 3 days for 2 administered as solution in water; assay type: functional, organism-based
COLO 205 [11] = test: Antitumor activity against Homo sapiens (human) COLO205 xenografted in SCID mouse assessed as inhibition of tumor growth at 7.5 to 10 mg/kg, iv twice daily for 3 days for 2 administered as solution in 2.5% cremophor; assay type: functional, organism-based
COLO 205 [12] = test: Antitumor activity against Homo sapiens (human) COLO205 xenografted in SCID mouse assessed as tumor growth at 1 to 5 mg/kg, iv twice daily for 3 days for 2 administered as solution in 2.5% cremophor; assay type: functional, organism-based

SMILES: COc1ccc2nc3cc(Cl)ccc3c(NCCCNCCCNc3c4ccc(Cl)cc4nc4ccc(OC)cc34)c2c1.O=C(O)C(F)(F)F.O=C(O)C(F)(F)F.O=C(O)C(F)(F)F
solubility [1]: soluble
solubility [2]: Insoluble
solubility [3]: soluble

SMILES: CC(=O)O.CC(=O)O.CC(=O)O.COc1ccc2nc3cc(Cl)ccc3c(NCCCNCCCNc3c4ccc(Cl)cc4nc4ccc(OC)cc34)c2c1
solubility [4]: Insoluble
solubility [5]: soluble
solubility [6]: soluble

SMILES: COc1ccc2nc3cc(Cl)ccc3c(NCCCNCCCNc3c4ccc(Cl)cc4nc4ccc(OC)cc34)c2c1 [listing 2 of 2 here]
Activity (COLO 205 [8]): inactive
Activity (COLO 205 [9]): inactive
TGI (COLO 205 [10]): Active
TGI (COLO 205 [11]): Active
Activity (COLO 205 [12]): inactive

More lines, now with the values ahead:

solubility [4]: Insoluble
solubility [5]: soluble
solubility [7]: Insoluble
SMILES: COc1ccc2nc3cc(Cl)ccc3c(NCCCNCCCNc3c4ccc(Cl)cc4nc4ccc(OC)cc34)c2c1.CS(=O)(=O)O

solubility [4]: Insoluble
solubility [5]: soluble
solubility [2]: Insoluble
SMILES: COc1ccc2nc3cc(Cl)ccc3c(NCCCNCCCNc3c4ccc(Cl)cc4nc4ccc(OC)cc34)c2c1 [listing 1 of 2 here]
